Bounds are passed on as bounds.

One assay addresses T1, cyclin E/CDK2 complex (Homo sapiens, UniProt P24941).
T1 construct: 6xHis (N); made in house; host or cells: Sf9 insect cells (baculovirus)
Kind of assay: ELISA method, inhibitory effect on cyclin E/CDK2 complex. The assay is classed as biochemical. The conditions noted are these: RB301 substrate, 100 µM ATP, Figs. 4 and 8. Here is the method: (§1) Clone 1C12 (specific to Thr356), clone 4E4 (specific to Ser612), and clone 2C4 (specific to Ser780) were used as the anti-phosphorylated RB monoclonal antibodies. Each anti-phosphorylated RB monoclonal antibody was diluted to a concentration of 10 µg/ml in PBS, and 100 µl of the diluted solution was added to each well of the plate followed by incubating at 4 °C for 15 hours. After removing the antibody solution, the reaction product in each well was blocked at 4°C for 24 hours in a PBS solution (5% sucrose, 0.1% NaN3) containing 2.5% of BSA. The plate was subjected to measurements after airdrying.
(§2) Cyclin D1/CDK4, cyclin A/CDK2, cyclin E/CDK2, and cyclin B/CDK1, respectively, were expressed in the sf9 cells using baculovirus, and were purified using a cobalt column and phospho-Cellulose column in order to use them as the cyclin/CDK complexes.
(§3) RB301 (10µg/ml), 100µM ATP, and respective Cyclin/CDK were added to the phosphate buffer (50 mM HEPES, 0.05% Triton X, 15 mM MgCl2, 2 mM EGTA, 200 µg/ml BSA) (final reaction volume of 180 µl), and was reacted for 30 minutes at 30°C. The reaction was stopped by adding 180 µl of PBS (10% skim milk, 350 mM NaCl, 50 mM EDTA) to each assay system.
(§4) After completing the phosphorylation reaction, 100 µl of each of the reaction solutions was added to the antibody sensitization plate, which was incubated at room temperature for 1 hour (primary reaction). […]
Background: An ELISA detects its analyte on a solid surface through an enzyme-linked reagent.

Another assay has as its target T2, cyclin D1/CDK4 complex (Homo sapiens, UniProt P11802).
T2 construct: 6xHis (N); made in house; host or cells: Sf9 insect cells (baculovirus)
Kind of assay: ELISA method, inhibitory effect on cyclin D1/CDK4 complex. As to conditions: for OD levels (inhibitory effect): RB301 substrate, 100 µM ATP, Figs. 5 and 9. The assay is classed as biochemical. Here is the method: as §1
The RB amino acid sequence 301aa-928aa was expressed as a GST fusion protein in Escherichia coli, and the protein (RB301) purified using glutathione Sepharose and phosho-Cellulose columns (P11) was used as the substrate. Cyclin D1/CDK4, cyclin A/CDK2, cyclin E/CDK2, and cyclin B/CDK1, respectively, were expressed in the sf9 cells using baculovirus, and were purified using a cobalt column and phospho-Cellulose column in order to use them as the cyclin/CDK complexes.
as §3
After completing the phosphorylation reaction, 100 µl of each of the reaction solutions was added to the antibody sensitization plate, which was incubated at room temperature for 1 hour (primary reaction). After washing with PBS [washing solution: PBS (500 mM NaCl, 0.1% Tween 20)] five times using a wash-bottle, 100 µl of anti-GST polyclonal antibody solution (0.5 µg/ml) was added to each well of the microplate, followed by incubation at room temperature for 1 hour (secondary reaction). After washing with PBS [washing solution: PBS (500 mM NaCl, 0.1% Tween 20)] five times using a wash-bottle, 100 µl of HRP labeled anti-rabbit IgG antibody solution (20,000-fold dilution) was added to each well of the microplate, followed by incubation at room temperature for 30 minutes (tertiary reaction). Then, the reaction solution was colored (coloring reaction) at room temperature for 30 minutes using TMB (tetramethylbentidine).

Another assay addresses T3, cyclin A/CDK2 complex (Homo sapiens, UniProt P24941).
T3 construct: 6xHis (N); made in house; host or cells: Sf9 insect cells (baculovirus)
Briefly: ELISA method, inhibitory effect on cyclin A/CDK2 complex. It is filed as biochemical. The conditions noted are these: RB301 substrate, 100 µM ATP, Figs. 3 and 7. Here is the method: as §1, §2, §3, §4

The next assay addresses PKC. The conditions noted are these: against PKC; nominal value of commercially available reagent; cited from earlier work.
A further assay concerns the target T4, cyclin B/CDK1 complex (Homo sapiens, UniProt P06493).
T4 construct: 6xHis (N); made in house; host or cells: Sf9 insect cells (baculovirus)
The assay is classed as biochemical. The conditions noted are these: ELISA method; RB301 substrate, 100 µM ATP; Figs. 2 and 6. Here is the method:
as §1, §2, §3, §4

The target in assay [1] is T5, CDK4 (Homo sapiens, UniProt P11802). As to conditions: reported in the literature (Meijer et al. 1997); cited from earlier work.
The target of assay [2] is T5, CDK4. As to conditions: against CDK4; nominal value; cited from earlier work.
Another assay has as its target cdk2 (Homo sapiens, UniProt P24941). The conditions noted are these: against CDK2; nominal value; cited from earlier work.
The next assay relates to MEK. As to conditions: inhibitor to MEK; nominal value of commercially available reagent; cited from earlier work.

T2 sequence (P11802 whole entry): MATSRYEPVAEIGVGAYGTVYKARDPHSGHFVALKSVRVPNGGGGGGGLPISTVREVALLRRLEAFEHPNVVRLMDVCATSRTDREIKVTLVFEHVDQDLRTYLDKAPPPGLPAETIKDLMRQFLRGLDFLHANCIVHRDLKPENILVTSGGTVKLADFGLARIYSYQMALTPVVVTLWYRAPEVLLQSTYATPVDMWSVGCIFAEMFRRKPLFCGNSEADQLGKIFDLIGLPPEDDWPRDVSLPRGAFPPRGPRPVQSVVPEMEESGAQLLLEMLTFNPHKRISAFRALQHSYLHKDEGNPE
T2 sequence (P24385 whole entry partner): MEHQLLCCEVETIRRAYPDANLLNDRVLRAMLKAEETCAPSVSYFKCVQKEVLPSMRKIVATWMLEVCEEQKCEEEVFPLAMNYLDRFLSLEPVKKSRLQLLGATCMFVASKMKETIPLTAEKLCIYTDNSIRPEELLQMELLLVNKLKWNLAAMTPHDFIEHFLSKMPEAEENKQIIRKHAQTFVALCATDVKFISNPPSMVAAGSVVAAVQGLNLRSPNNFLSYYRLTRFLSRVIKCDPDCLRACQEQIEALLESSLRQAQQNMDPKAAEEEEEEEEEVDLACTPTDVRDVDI
T5 sequence (P11802 whole entry, species assumed): as the sequence (P11802 whole entry) above
T5 sequence (P24385 whole entry partner, species assumed): as the sequence (P24385 whole entry partner) above
T4 sequence (P06493 whole entry): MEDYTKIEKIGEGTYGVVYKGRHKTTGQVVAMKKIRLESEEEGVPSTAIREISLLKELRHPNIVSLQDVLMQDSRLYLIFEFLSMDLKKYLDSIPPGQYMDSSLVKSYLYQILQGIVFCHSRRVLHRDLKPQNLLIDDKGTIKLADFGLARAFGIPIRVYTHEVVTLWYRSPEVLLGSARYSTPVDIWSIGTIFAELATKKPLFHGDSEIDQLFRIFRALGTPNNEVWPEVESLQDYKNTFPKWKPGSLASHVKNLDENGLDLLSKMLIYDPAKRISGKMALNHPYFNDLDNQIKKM
T4 sequence (P14635 whole entry partner): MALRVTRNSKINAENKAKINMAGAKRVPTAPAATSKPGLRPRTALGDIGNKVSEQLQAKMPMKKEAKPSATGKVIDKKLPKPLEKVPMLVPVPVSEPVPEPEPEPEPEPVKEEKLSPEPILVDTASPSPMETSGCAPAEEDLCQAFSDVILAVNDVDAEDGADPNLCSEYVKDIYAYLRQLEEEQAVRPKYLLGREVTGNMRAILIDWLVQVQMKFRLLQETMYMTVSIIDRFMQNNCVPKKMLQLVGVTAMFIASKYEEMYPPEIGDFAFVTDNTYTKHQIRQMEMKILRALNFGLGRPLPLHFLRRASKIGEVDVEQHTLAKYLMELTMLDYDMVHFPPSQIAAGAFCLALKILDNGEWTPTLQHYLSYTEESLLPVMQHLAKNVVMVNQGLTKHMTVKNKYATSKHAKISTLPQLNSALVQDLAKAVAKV

A word on the Ki: it is a dissociation constant, usually derived from enzyme kinetics or from competition with a known ligand. For `COC(=O)[C@@]1(O)C[C@H]2O[C@]1(C)n1c3ccccc3c3c4c(c5c6ccccc6n2c5c31)C(=O)NC4` [K252a], the “OD levels (inhibitory effect)” value on cyclin E/CDK2 complex, at cyclin D1/CDK4 complex, at cyclin A/CDK2 complex and on cyclin B/CDK1 complex was “decreased in a inhibitor concentration-dependent manner” each time. Moreover, the Ki on PKC is 25 nM.
With `Cn1cnc2nc(NCCO)nc(NCc3ccccc3)c21` [Olomoucine-isomer], the “OD levels (inhibitory effect)” value on cyclin D1/CDK4 complex is recorded as “almost no decrease in the OD value”.
In the case of `CC[C@H](CO)Nc1nc(NCc2ccccc2)c2ncn(C(C)C)c2n1` [Roscovitine], the “inhibitory effect on cdk4” value at CDK4 [1] was “remarkably weak inhibitory effect”. For the same compound, at cyclin D1/CDK4 complex, the “inhibitory effect on cyclin D1/CDK4 compared with the other three cyclin/CDK complexes” value is “weaker than those on the other three cyclin/CDK complexes” and the “OD levels (inhibitory effect)” value is listed as “decreased in a inhibitor concentration-dependent manner”.
In general, IC50 refers to the point on the concentration scale where inhibition reaches its midpoint. Turning to `N#CC(=C(/N)Sc1ccccc1N)/C(C#N)=C(\N)Sc1ccccc1N` [U0126], the “OD levels (inhibitory effect)” value on cyclin E/CDK2 complex, at cyclin D1/CDK4 complex and on cyclin A/CDK2 complex was “almost no decrease in the OD value” each time. Moreover, the IC50 is more than 10000 nM at CDK4 [2], more than 10000 nM at cdk2 and 55 nM in the assay on MEK.

Values taken from EP1207395A1, “METHOD FOR MEASURING KINASE ACTIVITY OF CYCLIN/CDK COMPLEX” (Medical & Biological Laboratories Co., Ltd., priority 1999, dated 2001).
